Measurements: patent US9382254B2, “Compounds and pharmaceutical compositions thereof for the treatment of cystic fibrosis” (Galapagos NV, priority 2013, dated 2016)

What was measured:
Assay type in all cases: cell-based
[1] = target: T1, CFTR ΔF508 mutant (Homo sapiens, UniProt P13569, DEL508-508); assay: YFP-halide influx assay for the CFTR-ΔF508 mutation, PBS buffer (96 well); settings: CFBE41o- cells, forskolin 10.67 μM
T1 construct: expressed in transfected cells; host or cells: CFBE41o- (adenoviral transduction)
T1 sequence (P13569 with tags, fused parts or gaps DEL508-508): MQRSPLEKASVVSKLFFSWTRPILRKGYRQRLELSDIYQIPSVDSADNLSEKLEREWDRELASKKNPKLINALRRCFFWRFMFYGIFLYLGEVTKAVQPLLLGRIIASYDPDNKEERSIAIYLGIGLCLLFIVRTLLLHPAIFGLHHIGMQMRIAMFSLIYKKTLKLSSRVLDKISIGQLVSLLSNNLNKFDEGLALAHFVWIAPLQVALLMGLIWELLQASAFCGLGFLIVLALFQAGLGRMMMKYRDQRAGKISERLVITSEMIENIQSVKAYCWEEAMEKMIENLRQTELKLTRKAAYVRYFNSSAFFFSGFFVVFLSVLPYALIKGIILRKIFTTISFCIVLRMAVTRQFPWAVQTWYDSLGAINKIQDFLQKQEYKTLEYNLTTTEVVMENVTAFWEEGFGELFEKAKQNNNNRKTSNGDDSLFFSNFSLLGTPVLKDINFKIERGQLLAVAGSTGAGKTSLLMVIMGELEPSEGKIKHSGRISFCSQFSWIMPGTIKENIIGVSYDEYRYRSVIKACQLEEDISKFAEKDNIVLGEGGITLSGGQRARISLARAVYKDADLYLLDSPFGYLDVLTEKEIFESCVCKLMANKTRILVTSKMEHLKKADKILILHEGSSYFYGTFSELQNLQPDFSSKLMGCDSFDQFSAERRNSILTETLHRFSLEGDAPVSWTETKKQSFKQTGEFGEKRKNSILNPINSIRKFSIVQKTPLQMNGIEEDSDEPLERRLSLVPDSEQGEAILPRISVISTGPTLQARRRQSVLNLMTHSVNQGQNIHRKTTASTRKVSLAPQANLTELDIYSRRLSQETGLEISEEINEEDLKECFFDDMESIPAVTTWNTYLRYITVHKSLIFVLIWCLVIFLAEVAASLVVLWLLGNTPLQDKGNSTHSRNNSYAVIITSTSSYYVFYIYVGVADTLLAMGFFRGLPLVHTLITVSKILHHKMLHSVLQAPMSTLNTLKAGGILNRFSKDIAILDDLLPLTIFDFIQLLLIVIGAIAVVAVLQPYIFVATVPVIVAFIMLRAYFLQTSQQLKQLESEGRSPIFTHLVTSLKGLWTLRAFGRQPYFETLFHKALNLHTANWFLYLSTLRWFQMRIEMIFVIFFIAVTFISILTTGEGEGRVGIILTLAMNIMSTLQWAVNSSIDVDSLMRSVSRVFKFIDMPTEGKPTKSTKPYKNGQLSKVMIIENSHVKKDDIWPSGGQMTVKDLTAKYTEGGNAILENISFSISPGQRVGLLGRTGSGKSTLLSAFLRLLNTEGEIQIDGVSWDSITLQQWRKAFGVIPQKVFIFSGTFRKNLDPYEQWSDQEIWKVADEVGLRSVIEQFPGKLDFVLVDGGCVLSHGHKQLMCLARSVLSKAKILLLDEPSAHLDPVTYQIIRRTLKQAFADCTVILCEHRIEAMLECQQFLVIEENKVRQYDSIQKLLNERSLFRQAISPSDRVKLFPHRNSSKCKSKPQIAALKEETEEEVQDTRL
Text: The YFP halide influx assay measures the functionality of the cystic fibrosis Transmembrane Conductance regulator (CFTR) channels in the cystic fibrosis bronchial epithelium cell line CFBE41o-. The assay is used to evaluate the capacity of compounds to increase the open probability of existing CFTR channels in the membrane. It makes use of the observation that the yellow fluorescent protein (YFP) variant YFP H148Q, I152L has its fluorescence substantially quenched by halide ions like Cl^− and I^−. (Galietta, Haggie, & Verkman, 2001) (Nagai, et al., 2002)
For this purpose, CFBE41o-cells are seeded in 96 well plates (6000 CFBE cells/well). One day after seeding, the CFBE cells are transduced with adenoviral vectors that direct the expression of the CFTR ΔF508 mutant and of the YFP reporter. Cells are incubated at 27° C., 5% CO2 for 24 hours so as to allow for the proper folding and migration to the membrane of the CFTR channel or treated with a CFTR modulator during 24 hours at 37° C.
The I^− induced quenching of fluorescence is recorded immediately after injection of I^− for 7 seconds. The capacity of a compound to increase the channel opening is directly correlated with the decrease in fluorescence, and is expressed as (1-(fluorescence after 7 seconds (F)/fluorescence before injection (F0))) and an EC50 can be derived from a (1-F/F0) vs compound concentration plot.

[2] = target: T2, CFTR G551D mutant (Homo sapiens, UniProt P13569, G551D); assay: YFP-halide influx assay for the CFTR-G551D mutation; settings: HEK293 cells, forskolin 10.67 μM
T2 construct: expressed in transfected cells; host or cells: HEK293 (reverse transfection with plasmid)
T2 sequence (P13569 whole entry G551D): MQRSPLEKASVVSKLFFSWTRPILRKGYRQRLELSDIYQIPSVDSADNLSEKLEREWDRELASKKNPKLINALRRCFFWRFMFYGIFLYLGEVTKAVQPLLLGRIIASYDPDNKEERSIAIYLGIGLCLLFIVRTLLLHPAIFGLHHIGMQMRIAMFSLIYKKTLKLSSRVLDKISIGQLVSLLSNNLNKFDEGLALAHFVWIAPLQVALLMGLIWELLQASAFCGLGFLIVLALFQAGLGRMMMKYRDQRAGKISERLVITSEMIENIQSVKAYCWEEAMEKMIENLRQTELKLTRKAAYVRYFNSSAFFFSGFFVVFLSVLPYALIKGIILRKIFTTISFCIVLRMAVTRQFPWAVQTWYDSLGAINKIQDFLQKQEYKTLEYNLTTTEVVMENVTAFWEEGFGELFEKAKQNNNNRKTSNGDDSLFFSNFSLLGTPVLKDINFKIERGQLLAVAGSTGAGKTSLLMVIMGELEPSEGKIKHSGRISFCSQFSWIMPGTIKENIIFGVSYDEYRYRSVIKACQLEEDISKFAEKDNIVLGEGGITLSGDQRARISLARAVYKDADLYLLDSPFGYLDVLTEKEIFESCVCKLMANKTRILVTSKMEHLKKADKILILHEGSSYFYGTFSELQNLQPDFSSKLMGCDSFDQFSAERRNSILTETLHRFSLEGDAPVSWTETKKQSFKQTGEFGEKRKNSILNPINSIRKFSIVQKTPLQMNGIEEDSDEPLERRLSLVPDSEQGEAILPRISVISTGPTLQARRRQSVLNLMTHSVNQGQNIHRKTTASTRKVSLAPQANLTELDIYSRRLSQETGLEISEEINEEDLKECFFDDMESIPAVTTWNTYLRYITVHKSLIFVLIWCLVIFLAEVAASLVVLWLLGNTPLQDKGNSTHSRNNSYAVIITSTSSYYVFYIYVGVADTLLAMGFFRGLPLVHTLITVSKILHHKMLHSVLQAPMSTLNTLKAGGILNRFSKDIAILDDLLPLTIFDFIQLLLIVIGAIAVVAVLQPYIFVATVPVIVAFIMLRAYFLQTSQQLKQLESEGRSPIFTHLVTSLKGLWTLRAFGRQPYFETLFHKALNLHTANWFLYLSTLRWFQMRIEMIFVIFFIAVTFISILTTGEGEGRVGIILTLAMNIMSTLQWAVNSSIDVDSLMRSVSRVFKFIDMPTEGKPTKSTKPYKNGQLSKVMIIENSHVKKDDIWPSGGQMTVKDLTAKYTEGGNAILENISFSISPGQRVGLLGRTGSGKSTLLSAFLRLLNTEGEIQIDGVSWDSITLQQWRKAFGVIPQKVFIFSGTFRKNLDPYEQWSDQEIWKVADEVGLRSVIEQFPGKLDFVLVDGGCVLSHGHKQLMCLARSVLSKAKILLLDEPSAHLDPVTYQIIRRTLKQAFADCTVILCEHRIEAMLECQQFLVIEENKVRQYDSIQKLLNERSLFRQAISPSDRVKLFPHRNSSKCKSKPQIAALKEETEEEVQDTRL
In short: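 Channel opening potentiation measured as 1−F/F0, where F is YFP fluorescence 7 s after iodide injection and F0 before; EC50 taken from concentration plot. Cells: HEK293 transiently expressing CFTR G551D plus halide-sensitive YFP (H148Q, I152L, F47L), 24 h at 37 °C, 5% CO2.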

[3] = target: T1, CFTR ΔF508 mutant; assay: YFP-halide influx assay for the CFTR-ΔF508 mutation (384 well, FDSS/μCell); settings: CFBE41o- cells, CFTR-ΔF508, 1×D-PBS, fluorescence after 36 seconds
In short: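 Potentiator read-out as 1−F/F0, F taken 36 s after iodide addition, EC50 fitted against compound concentration. Cells: CFBE41o- expressing ΔF508 CFTR plus halide-sensitive YFP via adenovirus, rescued by 27 °C for 24 h or 24 h modulator at 37 °C.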

| EC50 [1] [nM] | EC50 [2] [nM] | EC50 ([2]; class symbol) [nM] | EC50 [3] [nM] | Structure (SMILES) |
| --- | --- | --- | --- | --- |
| 3100 | – | – | – | COCCC(=O)Nc1sc(S(=O)(=O)c2ccc(F)cc2)cc1C(N)=O [Compound 229, 5-(4-fluorophenylsulfonyl)-2-(3-methoxypropanamido) thiophene-3-carboxamide] |
| 988 | – | – | – | NC(=O)c1cc(S(=O)(=O)c2ccc(F)cc2)sc1NC(=O)c1cccnc1F [Compound 230, N-(3-carbamoyl-5-(4-fluorophenylsulfonyl)thiophen-2-yl)-2-fluoronicotinamide] |
| 128 | 1050 | – | – | CN(C1CC1)S(=O)(=O)c1cc(C(N)=O)c(NC(=O)C2(O)CC2)s1 [Compound 232, 5-(N-cyclopropyl-N-methylsulfamoyl)-2-(1-hydroxycyclopropanecarboxamido) thiophene-3-carboxamide] |
| 130 | – | > 1000 | – | CC(C)N(C(C)C)S(=O)(=O)c1cc(C(N)=O)c(NC(=O)C2(O)CC2)s1 [Compound 233, 5-(N,N-diisopropylsulfamoyl)-2-(1-hydroxycyclopropanecarboxamido) thiophene-3-carboxamide] |
| 283 | – | – | – | CC1COCC(C)N1S(=O)(=O)c1cc(C(N)=O)c(NC(=O)C2(O)CC2)s1 (centres unmarked) [Compound 234, 5-(3,5-dimethylmorpholinosulfonyl)-2-(1-hydroxycyclopropanecarboxamido) thiophene-3-carboxamide] |
| 46.8 | – | – | 76.6 | COc1ccc(CN(C)S(=O)(=O)c2cc(C(N)=O)c(NC(=O)C3(O)CC3)s2)cc1 [Compound 235, 2-(1-hydroxycyclopropanecarboxamido)-5-(N-(4-methoxybenzyl)-N-methylsulfamoyl) thiophene-3-carboxamide] |
| 66.3 | – | – | 108 | CC(C)N(c1ccc(F)cc1)S(=O)(=O)c1cc(C(N)=O)c(NC(=O)C2(O)CC2)s1 [Compound 237, 5-(N-(4-fluorophenyl)-N-isopropylsulfamoyl)-2-(1-hydroxycyclopropanecarboxamido) thiophene-3-carboxamide] |
| 224 | – | – | – | CC1CN(S(=O)(=O)c2cc(C(N)=O)c(NC(=O)C3(O)CC3)s2)CC(C)O1 (centres unmarked) [Compound 238, 5-(2,6-dimethylmorpholinosulfonyl)-2-(1-hydroxycyclopropanecarboxamido) thiophene-3-carboxamide] |
| 292 | – | – | – | COC1CCN(S(=O)(=O)c2cc(C(N)=O)c(NC(=O)C3(O)CC3)s2)CC1 [Compound 239, 2-(1-hydroxycyclopropanecarboxamido)-5-(4-methoxypiperidin-1-ylsulfonyl)thiophene-3-carboxamide] |
| 611 | – | – | – | CC1CN(S(=O)(=O)c2cc(C(N)=O)c(NC(=O)C3(O)CC3)s2)CCO1 (centres unmarked) [Compound 240, 2-(1-hydroxycyclopropanecarboxamido)-5-(2-methylmorpholinosulfonyl) thiophene-3-carboxamide] |
| 247 | – | – | – | CC1(C)COCCN1S(=O)(=O)c1cc(C(N)=O)c(NC(=O)C2(O)CC2)s1 [Compound 241, 5-(3,3-dimethylmorpholinosulfonyl)-2-(1-hydroxycyclopropanecarboxamido) thiophene-3-carboxamide] |
| 1620 | – | – | – | COC1CN(S(=O)(=O)c2cc(C(N)=O)c(NC(=O)C3(O)CC3)s2)C1 [Compound 243, 2-(1-hydroxycyclopropanecarboxamido)-5-(3-methoxyazetidin-1-ylsulfonyl)thiophene-3-carboxamide] |
| 153 | – | – | – | COCCN(C1CC1)S(=O)(=O)c1cc(C(N)=O)c(NC(=O)C2(O)CC2)s1 [Compound 244, 5-(N-cyclopropyl-N-(2-methoxyethyl)sulfamoyl)-2-(1-hydroxycyclopropanecarboxamido) thiophene-3-carboxamide] |
| 2900 | – | – | – | NC(=O)c1cc(S(=O)(=O)c2ccc(F)cc2)sc1NC(=O)c1cccnn1 [Compound 249, N-(3-carbamoyl-5-(4-fluorophenylsulfonyl)thiophen-2-yl)pyridazine-3-carboxamide] |
| > 1000 | – | – | – | NC(=O)c1cc(S(=O)(=O)c2ccc(F)cc2)sc1NC(=O)c1ccnnc1 [Compound 250, N-(3-carbamoyl-5-(4-fluorophenylsulfonyl)thiophen-2-yl) pyridazine-4-carboxamide] |
| 49.1 | 214 | – | – | NC(=O)c1cc(S(=O)(=O)c2ccc(F)cc2)sc1NC(=O)C(O)C(F)(F)F (centres unmarked) [Compound 252, 5-(4-fluorophenylsulfonyl)-2-(3,3,3-trifluoro-2-hydroxypropanamido) thiophene-3-carboxamide] |
| 102 | – | – | 157 | CC1CN(S(=O)(=O)c2cc(C(N)=O)c(NC(=O)c3ccccc3C(F)(F)F)s2)CC(C)O1 (centres unmarked) [Compound 258, 5-(2,6-dimethylmorpholinosulfonyl)-2-(2-(trifluoromethyl)benzamido) thiophene-3-carboxamide] |
| 144 | – | – | – | CC1COCC(C)N1S(=O)(=O)c1cc(C(N)=O)c(NC(=O)c2ccccc2C(F)(F)F)s1 (centres unmarked) [Compound 259, 5-(3,5-dimethylmorpholinosulfonyl)-2-(2-(trifluoromethyl)benzamido) thiophene-3-carboxamide] |
| 94.4 | – | – | 87.5 | CC1(C)COCCN1S(=O)(=O)c1cc(C(N)=O)c(NC(=O)c2ccccc2C(F)(F)F)s1 [Compound 260, 5-(3,3-dimethylmorpholinosulfonyl)-2-(2-(trifluoromethyl)benzamido) thiophene-3-carboxamide] |
| 31.9 | – | – | 92.4 | COCCN(C1CC1)S(=O)(=O)c1cc(C(N)=O)c(NC(=O)c2ccccc2C(F)(F)F)s1 [Compound 261, 5-(N-cyclopropyl-N-(2-methoxyethyl)sulfamoyl)-2-(2-(trifluoromethyl)benzamido) thiophene-3-carboxamide] |
| 69.1 | – | – | 115 | CN(C1CC1)S(=O)(=O)c1cc(C(N)=O)c(NC(=O)c2ccccc2C(F)(F)F)s1 [Compound 262, 5-(N-cyclopropyl-N-methylsulfamoyl)-2-(2-(trifluoromethyl)benzamido) thiophene-3-carboxamide] |
| 197 | – | – | – | NC(=O)c1cc(S(=O)(=O)c2ccc(F)cc2)sc1NC(=O)c1ccc(F)cn1 [Compound 266, N-(3-carbamoyl-5-(4-fluorophenylsulfonyl)thiophen-2-yl)-5-fluoropicolinamide] |
| 653 | – | – | – | NC(=O)c1cc(S(=O)(=O)c2ccc(F)cc2)sc1Nc1ccccn1 [Compound 267, 5-(4-fluorophenylsulfonyl)-2-(pyridin-2-ylamino) thiophene-3-carboxamide] |
| 195 | – | – | – | COC(C)(C)C(=O)Nc1sc(S(=O)(=O)c2ccc(F)cc2)cc1C(N)=O [Compound 268, 5-(4-fluorophenylsulfonyl)-2-(2-methoxy-2-methylpropanamido) thiophene-3-carboxamide] |
| 231 | – | – | – | CC(C)=CC(=O)Nc1sc(S(=O)(=O)c2ccc(F)cc2)cc1C(N)=O [Compound 274, 5-(4-fluorophenylsulfonyl)-2-(3-methylbut-2-enamido) thiophene-3-carboxamide] |
| 220 | 1720 | – | – | NC(=O)c1cc(S(=O)(=O)c2ccc(F)cc2)sc1NC(=O)C(O)(C(F)(F)F)C(F)(F)F [Compound 275, 5-(4-fluorophenylsulfonyl)-2-(3,3,3-trifluoro-2-hydroxy-2-(trifluoromethyl)propanamido) thiophene-3-carboxamide] |
| 777 | 3330 | – | – | COCCOC(C)C(=O)Nc1sc(S(=O)(=O)c2ccc(F)cc2)cc1C(N)=O (centres unmarked) [Compound 276, 5-(4-fluorophenylsulfonyl)-2-(2-(2-methoxyethoxy)propanamido) thiophene-3-carboxamide] |
| 389 | 3330 | – | – | NC(=O)c1cc(S(=O)(=O)c2ccc(F)cc2)sc1NC(=O)C1COCCO1 (centres unmarked) [Compound 277, N-(3-carbamoyl-5-(4-fluorophenylsulfonyl)thiophen-2-yl)-1,4-dioxane-2-carboxamide] |
| 1400 | – | > 1000 | – | Cc1cccnc1S(=O)(=O)c1cc(C(N)=O)c(NC(=O)C(C)(C)O)s1 [Compound 278, 2-(2-hydroxy-2-methylpropanamido)-5-(3-methylpyridin-2-ylsulfonyl) thiophene-3-carboxamide] |
| 157 | 3330 | – | – | COCCOc1cc(F)ccc1S(=O)(=O)c1cc(C(N)=O)c(NC(=O)C(C)(C)O)s1 [Compound 282, 5-(4-fluoro-2-(2-methoxyethoxy)phenylsulfonyl)-2-(2-hydroxy-2-methylpropanamido) thiophene-3-carboxamide] |
